{"source": "PubChem BioAssay AID330", "about": "(DTP/NCI, 2004)", "test_system": "P388 leukemia ip, CD2F1 mice, survival T/C", "test": "NCI In Vivo Anticancer Drug Screen. Data for tumor model P388 Leukemia (intraperitoneal) in CD2F1 (CDF1) mice", "conditions": "endpoint: median survival time, higher = longer survival", "procedure,_shortened": "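Mice carrying the transplanted tumor received test compound or vehicle. Survival was recorded in each group, and the value is the treated-group measurement divided by that of the vehicle-treated control group.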", "key": {"[1]": {"conditions": "dose: 50.0 mg/kg/injection, schedule: Q01DX009 (ip), vehicle: saline"}, "[2]": {"conditions": "dose: 100.0 mg/kg/injection, schedule: Q01DX009 (ip), vehicle: saline"}, "[3]": {"conditions": "dose: 200.0 mg/kg/injection, schedule: Q01DX009 (ip), vehicle: saline"}, "[4]": {"conditions": "dose: 100.0 mg/kg/injection, schedule: Q01DX009 (ip), vehicle: saline with Tween-80"}, "[5]": {"conditions": "dose: 100.0 mg/kg/injection, schedule: Q04DX002 (ip), vehicle: Klucel (hydroxypropylcellulose) (HPC)"}, "[6]": {"conditions": "dose: 200.0 mg/kg/injection, schedule: Q04DX002 (ip), vehicle: Klucel (hydroxypropylcellulose) (HPC)"}, "[7]": {"conditions": "dose: 400.0 mg/kg/injection, schedule: Q04DX002 (ip), vehicle: Klucel (hydroxypropylcellulose) (HPC)"}, "[8]": {"conditions": "dose: 50.0 mg/kg/injection, schedule: Q01DX005 (ip), vehicle: saline with Tween-80"}, "[9]": {"conditions": "dose: 100.0 mg/kg/injection, schedule: Q01DX005 (ip), vehicle: saline with Tween-80"}, "[10]": {"conditions": "dose: 200.0 mg/kg/injection, schedule: Q01DX005 (ip), vehicle: saline with Tween-80"}, "[11]": {"conditions": "dose: 6.25 mg/kg/injection, schedule: Q01DX005 (ip), vehicle: saline with Tween-80"}, "[12]": {"conditions": "dose: 12.5 mg/kg/injection, schedule: Q01DX005 (ip), vehicle: saline with Tween-80"}}, "note": "Where “and” joins values, the source holds several entries; their conditions need not be identical. Equal values may be shown once. Toxic doses and inconclusive results are not listed.", "data": [{"compound": "COc1nc(SC)c(C#N)c(=O)[nH]1", "values": [{"measurement": "T/C", "setting": "[1]", "value": "107 % of control"}, {"measurement": "T/C", "setting": "[2]", "value": "98 % of control"}, {"measurement": "T/C", "setting": "[3]", "value": "107 % of control"}]}, {"compound": "CC1CCCC/C1=N/SC(c1ccccc1)(c1ccccc1)c1ccccc1", "note": "(stereo not drawn)", "values": [{"measurement": "T/C", "setting": "dose: 100.0 mg/kg/injection, schedule: Q01DX001 (ip), vehicle: saline with Tween-80", "value": "91 % of control"}, {"measurement": "T/C", "setting": "dose: 200.0 mg/kg/injection, schedule: Q01DX001 (ip), vehicle: saline with Tween-80", "value": "89 % of control"}, {"measurement": "T/C", "setting": "dose: 400.0 mg/kg/injection, schedule: Q01DX001 (ip), vehicle: saline with Tween-80", "value": "87 % of control"}]}, {"compound": "N#CCCNCCC[Si]12OCCN(CCO1)CCO2", "values": [{"measurement": "T/C", "setting": "dose: 50.0 mg/kg/injection, schedule: Q01DX005 (ip), vehicle: Klucel (hydroxypropylcellulose) (HPC)", "value": "97 % of control"}, {"measurement": "T/C", "setting": "dose: 100.0 mg/kg/injection, schedule: Q01DX005 (ip), vehicle: Klucel (hydroxypropylcellulose) (HPC)", "value": "100 % of control"}, {"measurement": "T/C", "setting": "dose: 200.0 mg/kg/injection, schedule: Q01DX005 (ip), vehicle: Klucel (hydroxypropylcellulose) (HPC)", "value": "101 % of control and 103 % of control"}]}, {"compound": "CCOCC1COc2c(cc3[nH]cc(C(=O)OCC)c(=O)c3c2Cl)O1", "note": "(stereo not drawn)", "values": [{"measurement": "T/C", "setting": "dose: 50.0 mg/kg/injection, schedule: Q01DX009 (ip), vehicle: saline with Tween-80", "value": "111 % of control"}, {"measurement": "T/C", "setting": "[4]", "value": "110 % of control"}, {"measurement": "T/C", "setting": "dose: 200.0 mg/kg/injection, schedule: Q01DX009 (ip), vehicle: saline with Tween-80", "value": "101 % of control"}]}, {"compound": "Nc1cc(N)cc(Cc2ccccc2)c1", "values": [{"measurement": "T/C", "setting": "[4]", "value": "100 % of control"}, {"measurement": "T/C", "setting": "dose: 100.0 mg/kg/injection, schedule: Q04DX003 (ip), vehicle: saline with Tween-80", "value": "100 % of control"}, {"measurement": "T/C", "setting": "dose: 200.0 mg/kg/injection, schedule: Q04DX003 (ip), vehicle: saline with Tween-80", "value": "109 % of control"}, {"measurement": "T/C", "setting": "dose: 400.0 mg/kg/injection, schedule: Q04DX003 (ip), vehicle: saline with Tween-80", "value": "95 % of control"}]}, {"compound": "CC(C)(C)c1ccc(C(O)(C(F)(F)F)C(F)(F)F)cc1", "values": [{"measurement": "T/C", "setting": "[5]", "value": "94 % of control"}, {"measurement": "T/C", "setting": "[6]", "value": "94 % of control"}, {"measurement": "T/C", "setting": "[7]", "value": "109 % of control"}]}, {"compound": "Cc1ccc(C2(O)c3ccccc3N=NN2C)cc1", "note": "(stereo not drawn)", "values": [{"measurement": "T/C", "setting": "[8]", "value": "100 % of control"}, {"measurement": "T/C", "setting": "[9]", "value": "100 % of control"}, {"measurement": "T/C", "setting": "[10]", "value": "96 % of control"}]}, {"compound": "CS/C(=C/c1ccc2ccccc2[n+]1C)N1CCOCC1", "values": [{"measurement": "T/C", "setting": "[11]", "value": "105 % of control and 107 % of control and 108 % of control"}, {"measurement": "T/C", "setting": "[12]", "value": "103 % of control and 105 % of control and 119 % of control"}, {"measurement": "T/C", "setting": "dose: 25.0 mg/kg/injection, schedule: Q01DX005 (ip), vehicle: saline with Tween-80", "value": "110 % of control (2×) and 121 % of control"}]}, {"compound": "CCC1=C[C@@H]2C[C@](C(=O)OC)(c3cc4c(cc3OC)N(C)[C@H]3[C@@](O)(C(=O)OC)[C@H](OC(C)=O)[C@]5(CC)C=CCN6CC[C@]43[C@@H]65)c3[nH]c4ccccc4c3CCN(C1)[C@@H]2O", "values": [{"measurement": "T/C", "setting": "dose: 2.5 mg/kg/injection, schedule: Q01DX001 (ip), vehicle: water", "value": "117 % of control"}, {"measurement": "T/C", "setting": "dose: 20.0 mg/kg/injection, schedule: Q01DX001 (ip), vehicle: water", "value": "153 % of control and 159 % of control"}, {"measurement": "T/C", "setting": "dose: 40.0 mg/kg/injection, schedule: Q01DX001 (ip), vehicle: water", "value": "161 % of control and 170 % of control"}, {"measurement": "T/C", "setting": "dose: 80.0 mg/kg/injection, schedule: Q01DX001 (ip), vehicle: water", "value": "180 % of control"}, {"measurement": "T/C", "setting": "dose: 160.0 mg/kg/injection, schedule: Q01DX001 (ip), vehicle: water", "value": "93 % of control"}]}, {"compound": "COc1ccccc1Nc1ncnc2sc3c(c12)CCCC3", "values": [{"measurement": "T/C", "setting": "[8]", "value": "101 % of control"}, {"measurement": "T/C", "setting": "[9]", "value": "95 % of control"}, {"measurement": "T/C", "setting": "[10]", "value": "101 % of control"}]}, {"compound": "CC(C)=CC[P+](CCC[P+](CC=C(C)C)(c1ccccc1)c1ccccc1)(c1ccccc1)c1ccccc1", "values": [{"measurement": "T/C", "setting": "dose: 3.12 mg/kg/injection, schedule: Q01DX005 (ip), vehicle: saline with Tween-80", "value": "106 % of control"}, {"measurement": "T/C", "setting": "[11]", "value": "104 % of control"}, {"measurement": "T/C", "setting": "[12]", "value": "98 % of control"}]}, {"compound": "COc1ccccc1OCC1CCC(=O)O1", "note": "(stereo not drawn)", "values": [{"measurement": "T/C", "setting": "[5]", "value": "95 % of control"}, {"measurement": "T/C", "setting": "[6]", "value": "103 % of control"}, {"measurement": "T/C", "setting": "[7]", "value": "101 % of control"}]}, {"compound": "CC(=O)OC1C(=O)OC(=O)C(OC(C)=O)C1OC(C)=O", "note": "(stereo not drawn)", "values": [{"measurement": "T/C", "setting": "[1]", "value": "100 % of control"}, {"measurement": "T/C", "setting": "[2]", "value": "93 % of control"}, {"measurement": "T/C", "setting": "[3]", "value": "100 % of control"}]}, {"compound": "CCCCCCCCCC[N+](C)(C)CCCO", "values": [{"measurement": "T/C", "setting": "dose: 12.5 mg/kg/injection, schedule: Q01DX009 (ip), vehicle: saline", "value": "96 % of control"}, {"measurement": "T/C", "setting": "dose: 25.0 mg/kg/injection, schedule: Q01DX009 (ip), vehicle: saline", "value": "112 % of control"}, {"measurement": "T/C", "setting": "[1]", "value": "118 % of control"}]}, {"compound": "N#CC(=N)C(C#N)=Nc1c(O)[nH]c2ccc(Br)cc12", "values": [{"measurement": "T/C", "setting": "[1]", "value": "100 % of control"}, {"measurement": "T/C", "setting": "[2]", "value": "94 % of control"}, {"measurement": "T/C", "setting": "[3]", "value": "91 % of control"}]}]}
